# Results published in patent US20020026052A1, “3-cyanoquinolines, 3-cyano-1,6-naphthyridines, and 3-cyano-1,7-naphthyridines as protein kinase inhibitors” (American Home Products Corporation, priority 2000, published 2002).
row,Structure (SMILES),melting point
1,COc1cc(Nc2c(C#N)cnc3cc(-c4cccc(CN5CCOCC5)n4)ccc23)c(Cl)cc1Cl,181 to 183 °C
2,COc1cc(Nc2c(C#N)cnc3cc(-c4cc(CN5CCOCC5)ccn4)ccc23)c(Cl)cc1Cl,180 to 182 °C
3,COc1cc(Nc2c(C#N)cnc3cc(-c4cncc(CN5CCOCC5)c4)ccc23)c(Cl)cc1Cl,141 to 143 °C
4,COc1cc(Nc2c(C#N)cnc3cc(-c4ccc(CN5CCOCC5)cn4)ccc23)c(Cl)cc1Cl,220 to 222 °C
5,COc1cc(Nc2c(C#N)cnc3cc(-c4ccc(CN5CCOCC5)nc4)ccc23)c(Cl)cc1Cl,195 to 197 °C
6,"N#Cc1cnc2cc(-c3csc(CN4CCOCC4)c3)ccc2c1Nc1ccc(Oc2ccccc2)cc1 [Example 7, 7-[5-(4-Morpholinylmethyl)-3-thienyl]-4-(4-phenoxyanilino)-3-quinolinecarbonitrile]",221 to 223 °C
7,"N#Cc1cnc2cc(-c3csc(CN4CCOCC4)c3)ccc2c1Nc1ccc(Cc2ccccc2)cc1 [Example 8, 4-(4-Benzylanilino)-7-[5-(4-morpholinylmethyl)-3-thienyl]-3-quinolinecarbonitrile]",228 to 230 °C
8,"N#Cc1cnc2cc(C#CCO)ccc2c1Nc1ccc(Cl)cc1Cl [Example 14, 4-(2,4-Dichloroanilino)-7-(3-hydroxy-1-propynyl)-3-quinolinecarbonitrile]",251 to 253 °C
9,"N#Cc1cnc2cc(-c3ccc(-c4ccccn4)s3)ccc2c1Nc1ccc(Cl)cc1Cl [Example 18, 4-(2,4-dichloroanilino)-7-[5-(2-pyridinyl)-2-thienyl]-3-quinolinecarbonitrile]",270 °C (dec.)
10,"COc1cc(Nc2c(C#N)cnc3cc(-c4ccc(/C=C/CN5CCOCC5)s4)ccc23)c(Cl)cc1Cl [Example 21, 4-(2,4-Dichloro-5-methoxyanilino)-7-{5-[(E)-3-(4-morpholinyl)-1-propenyl]-2-thienyl}-3-quinolinecarbonitrile]",145 °C
11,"COc1cc(Nc2c(C#N)cnc3cc(-c4ccc(CN5CCOCC5)c(CN5CCOCC5)c4)ccc23)c(Cl)cc1Cl [Example 34, 7-[3,4-bis(4-morpholinylmethyl)phenyl]-4-(2,4-dichloro-5-methoxyanilino)-3-quinolinecarbonitrile]",198 to 200 °C
12,"COc1cc(Nc2c(C#N)cnc3cc(-c4csc(C5OCCO5)c4)ccc23)c(Cl)cc1Cl [Example 42, 4-(2,4-dichloro-5-methoxyanilino)-7-[5-(1,3-dioxolan-2-yl)-3-thienyl]-3-quinoline-carbonitrile]",234 to 236 °C
13,"COc1cc(Nc2c(C#N)cnc3cc(-c4csc(C=O)c4)ccc23)c(Cl)cc1Cl [Example 43, 4-(2,4-Dichloro-5-methoxyanilino)-7-(5-formyl-3-thienyl)-3-quinolinecarbonitrile]",259 to 262 °C (dec.)
14,"N#Cc1cnc2cc(-c3csc(C=O)c3)ccc2c1Nc1ccc(Cl)cc1Cl [Example 44, 4-(2,4-dichloroanilino)-7-(5-formyl-3-thienyl)-3-quinolinecarbonitrile]",286 to 288 °C
15,"COc1cc(Nc2c(C#N)cnc3ccc(-c4csc(C=O)c4)cc23)c(Cl)cc1Cl [Example 45, 4-(2,4-Dichloro-5-methoxyanilino)-6-(5-formyl-3-thienyl)-3-quinolinecarbonitrile]",233 to 237 °C
16,"N#Cc1cnc2cc(-c3cncc(CN4CCOCC4)c3)ccc2c1Nc1ccc(Oc2ccccc2)cc1 [Example 48, 7-[5-(4-Morpholinylmethyl)-3-pyridinyl]-4-(4-phenoxyanilino)-3-quinolinecarbonitrile]",185 to 187 °C
17,"N#Cc1cnc2cc(-c3ccc(CN4CCOCC4)cn3)ccc2c1Nc1ccc(Oc2ccccc2)cc1 [Example 56, 7-[5-(4-Morpholinylmethyl)-2-pyridinyl]-4-(4-phenoxyanilino)-3-quinolinecarbonitrile]",219 to 221 °C
18,"N#Cc1cnc2ccc(-n3cccc3C=O)cc2c1Nc1cccc(Br)c1 [Example 60, 4-(3-Bromoanilino)-6-(2-formyl-1H-pyrrol-1-yl)-3-quinolinecarbonitrile]",94 to 95 °C
19,"Cc1cc(Nc2c(C#N)cnc3cc(-c4csc(C5OCCO5)c4)ccc23)ccc1OCc1ccccn1 [Example 94, 7-[5-(1,3-Dioxolan-2-yl)-3-thienyl]-4-[3-methyl-4-(2-pyridinylmethoxy)anilino]-3-quinolinecarbonitrile]",194 to 196 °C
20,"Cc1cc(Nc2c(C#N)cnc3cc(-c4csc(CN5CCOCC5)c4)ccc23)ccc1OCc1ccccn1 [Example 95, 4-[3-Methyl-4-(2-pyridinylmethoxy)anilino]-7-[5-(4-morpholinylmethyl)-3-thienyl]-3-quinolinecarbonitrile]",217 to 219 °C
21,"COc1cc(Nc2c(C#N)cnc3cc(-c4cnc(C=O)n4C)ccc23)c(Cl)cc1Cl [Example 96, 4-(2,4-Dichloro-5-methoxyanilino)-7-(2-formyl-1-methyl-1H-imidazol-5-yl)-3-quinolinecarbonitrile]",186 to 189 °C
22,"COc1cc(Nc2c(C#N)cnc3cc(-c4ccc(Cn5ccnn5)cc4)ccc23)c(Cl)cc1Cl [Example 103, 4-[(2,4-Dichloro-5-methoxyphenyl)amino]-7-[4-(1H-1,2,3-triazol-1-ylmethyl)phenyl]-3-quinolinecarbonitrile]",239 to 240 °C
23,"COCCOc1ccc(-c2ccc3c(Nc4cc(OC)c(Cl)cc4Cl)c(C#N)cnc3c2)cc1 [Example 130, 4-(2,4-Dichloro-5-methoxyanilino)-7-{4-[(2-methoxy)ethoxy]phenyl}-3-quinolinecarbonitrile]",205 to 207 °C

# Next, values leading:
row,melting point,Structure (SMILES)
1,212 to 215 °C,COc1cc(Nc2c(C#N)cnc3cc(-c4ccc(CN5CCN(C)CC5)cn4)ccc23)c(Cl)cc1Cl
2,> 240 °C (dec.),"Cn1ccnc1Sc1ccc(Nc2c(C#N)cnc3cc(-c4ccc(C=O)cc4)ccc23)cc1Cl [Example 62, 4-{3-chloro-4-[(1-methyl-1H-imidazol-2-yl)sulfanyl]anilino}-7-(4-formylphenyl)-3-quinolinecarbonitrile]"
3,148 to 150 °C,"Cn1ccnc1Sc1ccc(Nc2c(C#N)cnc3cc(-c4ccc(CN5CCOCC5)cc4)ccc23)cc1Cl [Example 63, 4-{3-chloro-4-[(1-methyl-1H-imidazol-2-yl)sulfanyl]anilino}-7-[4-(4-morpholinylmethyl)phenyl]-3-quinolinecarbonitrile]"
4,193 to 195 °C,"CC(C)N1CCN(Cc2ccc(-c3ccc4c(Nc5ccc(Sc6nccn6C)c(Cl)c5)c(C#N)cnc4c3)cc2)CC1 [Example 98, 4-({3-Chloro-4-[(1-methyl-1H-imidazol-2-yl)sulfanyl]phenyl}amino)-7-{4-[(4-isopropyl-1-piperazinyl)methyl]phenyl}-3-quinolinecarbonitrile]"
5,197 to 199 °C,"CN(CCO)Cc1ccc(-c2ccc3c(Nc4ccc(Sc5nccn5C)c(Cl)c4)c(C#N)cnc3c2)nc1 [Example 106, 4-({3-Chloro-4-[(1-methyl-IH-irnidazol-2-yl)sulfanyl]phenyl}amino)-7-(5-{[(2-hydroxyethyl) (methyl)amino]methyl}-2-pyridinyl)-3-quinolinecarbonitrile]"
6,135 to 137 °C,"COC(=O)C1CCN(Cc2ccc(-c3ccc4c(Nc5ccc(Sc6nccn6C)c(Cl)c5)c(C#N)cnc4c3)nc2)CC1 [Example 107, Methyl 1-{[6-(4-{3-chloro-4-[(1-methyl-1H-imidazol-2-yl)sulfanyl]anilino}-3-cyano-7-quinolinyl)-3-pyridinyl]methyl}-4-piperidinecarboxylate]"
7,246 to 248 °C,"CCN1CCN(c2ccc(-c3ccc4c(Nc5ccc(Sc6nccn6C)c(Cl)c5)c(C#N)cnc4c3)nc2)CC1 [Example 108, 4-({3-Chloro-4-[(1-methyl-1H-imidazol-2-yl)sulfanyl]phenyl}amino)-7-[5-(4-ethyl-1-piperazinyl)-2-pyridinyl]-3-quinolinecarbonitrile]"
8,233 to 235 °C,"Cn1ccnc1Sc1ccc(Nc2c(C#N)cnc3cc(-c4ccc(CN5CCOCC5)nc4)ccc23)cc1Cl [Example 109, 4-({3-chloro-4-[(1-methylimidazol-2-yl)sulfanyl]phenyl}amino)-7-[6-(4-morpholinylmethyl)-3-pyridinyl]-3-quinolinecarbonitrile]"
9,238 to 240 °C,"COc1cc2c(Nc3ccc(Sc4nccn4C)c(Cl)c3)c(C#N)cnc2cc1-c1csc(CN2CCOCC2)c1 [Example 125, 4-{3-chloro-4-[(1-methylimidazol-2-yl)sulfanyl]anilino}-6-methoxy-7-[5-(4-morpholinylmethyl)-3-thienyl]-3-quinolinecarbonitrile]"
10,162 to 164 °C,"COc1cc2c(Nc3ccc(Sc4nccn4C)c(Cl)c3)c(C#N)cnc2cc1-c1csc(CN2CCN(C)CC2)c1 [Example 126, 4-{3-chloro-4-[(1-methylimidazol-2-yl)sulfanyl]anilino}-6-methoxy-7-{5-[(4-methyl-1-piperazinyl)methyl]-3-thienyl}-3-quinolinecarbonitrile]"
11,227 to 229 °C,"COc1ccc(-c2cc3ncc(C#N)c(Nc4ccc(Sc5nccn5C)c(Cl)c4)c3cc2OC)cc1 [Example 127, 4-{3-Chloro-4-[(I -methyl-iH-imidazol-2-yl)sulfanyl]anilino}-6-methoxy-7-(4-methoxyphenyl)-3-quinolinecarbonitrile]"
12,98 to 101 °C,"Cn1ccnc1Sc1ccc(Nc2c(C#N)cnc3cc(-c4ccc(C(=O)N5CCOCC5)cc4)ccc23)cc1Cl [Example 129, 4-({3-Chloro-4-[(i-methyl-IH-imidazol-2-yl)sulfanyl]phenyl}amino)-7-[4-(4-morpholinylcarbonyl)phenyl]-3-quinolinecarbonitrile]"
13,230 to 232 °C,"Cn1ccnc1Sc1ccc(Nc2c(C#N)cnc3cc(-c4ccc(CN5CCC(O)CC5)cc4)ccc23)cc1Cl [Example 134, 4-{3-Chloro-4-[(1-methyl-LH-imidazol-2-yl)sulfanyl]anilino}-7-{4-[(4-hydroxy-1-piperidinyl)methyl]phenyl}-3-quinolinecarbonitrile]"
